Measured values reported in patent publication US6407239B1, “Aromatic esters of camptothecins and methods to treat cancers” (priority 1999, dated 2002).

Tests used:
[1] = animal models; cited from earlier work
[2] = cited from earlier work
14 human cell lines = assay: compounds tested against 14 human cell lines (in vitro); format: cell-based
Source text: What is interesting from these in vitro data is that the activity of these esters is related to the substituents on their side aromatic rings. […] Thus, the difference in activity among the esters of the present invention are due to the different substituents on their side aromatic ring.

[3] = cited from earlier work; remark: listed apart in the source
[4] = cited from earlier work; remark: listed apart in the source
mouse leukemia L 1210 = details: initial test; cited from earlier work
[5] = patients, early trials; cited from earlier work

Molecule: CC[C@@](O)(C(=O)[O-])c1cc2n(c(=O)c1CO)Cc1cc3ccccc3nc1-2.[Na+] [CPT sodium carboxylate]
- potency relative to the parent camptothecin [1]: 10-20%
- solubility in water [2]: water-soluble

Molecule: CC[C@@]1(OC(=O)c2ccccc2)C(=O)OCc2c1cc1n(c2=O)Cc2cc3ccccc3nc2-1 [CZ222]
- activity (response of 14 human cell lines) (14 human cell lines): do not show any activity

Molecule: CC[C@@]1(O)C(=O)OCc2c1cc1n(c2=O)Cc2cc3c([N+](=O)[O-])cccc3nc2-1 [9-nitrocamptothecin]
- found as the lactone form in human plasma [3]: 5%
- present as lactone form in mice plasma [4]: about 50%

Molecule: CC[C@@]1(O)C(=O)OCc2c1cc1n(c2=O)Cc2cc3ccccc3nc2-1 [Camptothecin]
- activity against mouse leukemia L 1210 (mouse leukemia L 1210): showed good activity
- anticancer activity in human clinical trials [5]: anticancer activity was not found
- toxicity in human clinical trials [5]: severe toxicity was observed

Molecule: 20-O-phenyl-9-nitrocamptothecin [CZ176]
- activity (response of 14 human cell lines) (14 human cell lines): do not show any activity
